The results in this text go back to US20090275474A1, “PESTICIDAL APPLICATIONS OF DIMETHYL CYANAMIDE” (Metbro Distributing L.P., priority 2008, published 2009).

Entries after “also recorded” stand apart in the source; their conditions may differ.

Type in all cases: in vivo
The subject of assay [1] is dorylaimida (predatory, not plant parasitic nematodes). Kind of assay: Example 2 pot test, soil populations of dorylaimida. The note with it: soil drench 20-150 mgs. A.I./kg soil. The procedure:
(§1) Dimethyl cyanamide and diisopropyl cyanamide (both obtained from Aldrich) were delivered in aqueous preparations (1.25% active ingredient) (A.I.) prepared immediately before use by diluting in demineralized water while stirring with a magnetic stirrer. […] Each compound was delivered at rates of 0, 20, 40, 60, 80, 100, and 150 mgs. A.I./kg soil—equivalent to […].
(§2) Each treatment was delivered by drenching in 100 mL aqueous volume onto the soil surface in pots (10-cm diam.; PVC) containing 1 kg soil. The soil (silt loam; pH 6.2; cec<10 meq/100 gm soil; org. matter<1.0%) was from a cotton field severely infested with the reniform nematode [Rotylenchulus reniformis]. Immediately after treatment the pots were covered by a thick (1.5 mil) clear low density polyethylene bag held tight against the outer wall of the pot by a rubber band. Eleven days after application the bags were removed and soil samples were taken from every pot (experimental unit) for nematological analysis (salad bowl incubation technique). […] Final root and soil nematode populations were determined and plant growth parameters (number and height of plants, weights of shoots and roots, root condition indices) were recorded. […]

The subject of assay [2] is beneficial microbivorous nematodes. Nature of the assay: Example 2 pot test, microbivorous nematodes in soil. The note with it: soil drench 20-150 mgs. A.I./kg soil. The procedure: as §1, §2
For assay [3], the system named is reniform nematode (Rotylenchulus reniformis). Nature of the assay: Example 1 pot test, soil drench, reniform nematode in soil and soybean roots. The note with it: for nematicidal activity against the reniform nematode in soil and soybean roots: soil drench 25-200 mg A.I./kg soil, soil sampled 11 days after application and after eight weeks of soybean growth, FIGS. 1-6. The procedure:
(§3) Hydrogen cyanamide (Dormex® formulation, Dormex Corp.) and dimethyl cyanamide (Aldrich) were delivered in aqueous preparations (1.25% active ingredient) (A.I.) prepared immediately before use by diluting in demineralized water while stirring with a magnetic stirrer. Each compound was delivered at rates of 0, 25, 50, 75, 100, 150, and 200 mg A.I./kg soil—equivalent to 0, 50, 100, 150, 200, 300, and 400 lbs A.I./acre.
Each treatment was delivered by drenching the compound in 100 mL aqueous volume onto the soil surface in pots (10-cm diam.; PVC) containing 1 kg soil. The soil (silt loam; pH 6.2; cec<10 meq/100 gm soil; org. matter<1.0%) was from a cotton field severely infested with the reniform nematode (Rotylenchulus reniformis). Immediately after treatment the pots were covered with a thick (1.5 mil) clear low density polyethylene bag held tight against the outer wall of the pot by a rubber band. Eleven days after application the bags were removed and soil samples were taken from every pot (experimental unit) for nematological analysis (salad bowl incubation technique). Each pot was then planted with five seeds of nematode-susceptible “Hutcheson” soybean (glycine max) and the resulting plants were grown for eight weeks, at which time the plants were removed and soil samples were taken from each pot. Final root and soil nematode populations were determined and plant growth parameters (number & height of plants, weights of shoots and roots, root condition indices) were recorded.
Major pests: The reniform nematode [Rotylenchulus reniformis].
(§4) Experimental design: Randomized complete block with seven replications/treatment.
(§5) Statistical analyses: ANOVA and Fischer's least significant difference [FLSD] at p 0.05. Regression analyses.

In assay [4] the test system is dorylaimida (predatory, not plant parasitic nematodes). Nature of the assay: Example 1 pot test, soil populations of dorylaimida. The note with it: soil drench 25-200 mg A.I./kg soil. The procedure:
as §3
as §2, with “drenching the compound” for “drenching”, “nematode (Rotylenchulus reniformis).” for “nematode [Rotylenchulus reniformis].”, “covered with” for “covered by”, “(number &” for “(number and”

The subject of assay [5] is beneficial microbivorous nematodes. Kind of assay: Example 1 pot test, microbivorous nematodes in soil. The note with it: soil drench 25-200 mg A.I./kg soil. The procedure: as §3
as §2, with “drenching the compound” for “drenching”, “nematode (Rotylenchulus reniformis).” for “nematode [Rotylenchulus reniformis].”, “covered with” for “covered by”, “(number &” for “(number and”

Assay [6] relates to Yellow nutsedge [Cyperus esculentus], crabgrass [Digitaria sanguinalis], sicklepod [Senna obtusifolia], morningglory [Ipomoea spp.], and other annual weeds. Nature of the assay: Example 3 herbicidal pot test, soil drench, weed counts. The conditions noted are these: for herbicidal activity against all weed species tested: soil drench 100-800 mgs. A.I./kg soil, weed counts 11, 19, 26 and 32 days after application, FIGS. 11-12. The procedure: Hydrogen cyanamide and dimethyl cyanamide were delivered in aqueous 5% solutions prepared immediately before use by diluting in demineralized water while stirring with a magnetic stirrer. Both chemicals were obtained from Aldrich. Each compound was delivered at rates of 0, 100, 200, 300, 400, 600, and 800 mgs. A.I./kg soil—equivalent to 0, 200, 400, 600, 800, 1200, and 1600 lbs A.I./acre.
Each treatment was delivered by drenching in 100 mL aqueous volume onto the soil surface in pots [10-cm diam.; PVC] containing 1 kg soil. The soil was from a cotton field [silt loam; ph 6.2; cec<10 meq/100 gm soil; org. matter<1.0%]. Immediately after treatment the pots were covered by a thick [1.5 mil] clear low density polyethylene bag held tight against the outer wall of the pot by a rubber band. Eleven days after application the bags were removed. Weed counts were taken from each pot [experimental unit] at 11, 19, 26 and 32 days after application of the treatments.
Major pests: Yellow nutsedge [Cyperus esculentus], crabgrass [Digitaria sanguinalis], sicklepod [Senna obtusifolia], morningglory [Ipomoea spp.], and other annual weeds.
Experimental design: Randomized complete block with seven replications/treatments.
as §5

The test system of assay [7] is "Hutcheson" soybean (glycine max). Nature of the assay: Example 1 pot test, growth of soybean plants in nematode-infested soil. The conditions noted are these: after eight weeks of growth. The procedure: as §3
as §2, with “drenching the compound” for “drenching”, “nematode (Rotylenchulus reniformis).” for “nematode [Rotylenchulus reniformis].”, “covered with” for “covered by”, “(number &” for “(number and”

Assay [8] concerns reniform nematode [Rotylenchulus reniformis]. Kind of assay: Example 2 pot test, soil drench, reniform nematode in soil. The conditions noted are these: soil drench 20-150 mgs. A.I./kg soil; FIGS. 7-10. The procedure:
as §1, §2

The subject of assay [9] is "Rowden" cotton (Gossipyum hirsutum). Kind of assay: Example 2 pot test, growth and root health of cotton plants in nematode-infested soil. The procedure: as §1
Each treatment was delivered by drenching in 100 mL aqueous volume onto the soil surface in pots (10-cm diam.; PVC) containing 1 kg soil. The soil (silt loam; pH 6.2; cec<10 meq/100 gm soil; org. matter<1.0%) was from a cotton field severely infested with the reniform nematode [Rotylenchulus reniformis]. Immediately after treatment the pots were covered by a thick (1.5 mil) clear low density polyethylene bag held tight against the outer wall of the pot by a rubber band. Eleven days after application the bags were removed and soil samples were taken from every pot (experimental unit) for nematological analysis (salad bowl incubation technique). Each pot was then planted with five seeds of nematode-susceptible “Rowden” cotton (Gossipyum hirsutum) and the resulting plants were grown for eight weeks, at which time the plants were removed and soil samples were taken from each pot. Final root and soil nematode populations were determined and plant growth parameters (number and height of plants, weights of shoots and roots, root condition indices) were recorded.
as §4
Statistical analyses: ANOVA and Fischer's least significant difference [FLSD] at p
0.05. Regression analyses.

Assay [10] concerns Yellow nutsedge [Cyperus esculentus], crabgrass [Digitaria sanguinalis], sicklepod [Senna obtusifolia], morningglory [Ipomoea spp], and other annual weeds. Nature of the assay: Example 4 herbicidal pot test, dimethyl cyanamide alone and in combination with EPTC, weed counts. The procedure: Dimethyl cyanamide was delivered in a 5% aqueous solution. The herbicide EPTC [ethyl n-propyl thiocarbamate] was delivered in an aqueous emulsion containing 0.1192% A.I. Both formulations were prepared immediately before use by diluting or mixing [a concentrated formulation?] in demineralized water while stirring with a magnetic stirrer. The dimethyl cyanamide was obtained from Aldrich. The EPTC used was a commercial formulation [Eptam® herbicide, Gowan].
Dimethyl cyanamide was applied at rates of 0, 50, 100, 200, 300, and 400 mg A.I./kg soil—equivalent to 0, 100, 200, 400, 600, and 800 lbs A.I./acre, respectively. EPTC was delivered at 0 and 3.576 mg/kg soil, equivalent to 0 and approximately 7 lbs. A.I./acre. All possible combinations of the two compounds at their corresponding rates were included in the experiment.
Each treatment was delivered by drenching in 100 mL aqueous volume onto the soil surface in pots [10-cm diam.; PVC] containing 1 kg soil. The soil was from a cotton field [silt loam; ph 6.2; cec<10 meq/100 gm soil; org. matter<1.0%1. Immediately after treatment the pots were covered by a thick [1.5 mil] clear low density polyethylene bag held tight against the outer wall of the pot by a rubber band. Six days after application the bags were removed. Weed counts were taken from each pot [experimental unit] at 6, 12, 17, 47, and 62 days after application of the treatments. […]

`CC(C)N(C#N)C(C)C` [diisopropyl cyanamide, reference compound]: in [1], the “soil populations of dorylaimida” value is recorded as “either reduced or not affected”. For the same compound, the “soil populations of beneficial microbivorous nematodes” value in assay [2] was “either reduced or not affected”.
In the case of `N#CN` [hydrogen cyanamide, Hydrogen cyanamide, reference compound], in [3], the “nematicidal activity against the reniform nematode in soil and soybean roots” value is “nematicidal, resulting in suppression or elimination of the reniform nematode in soil and soybean roots”. Moreover, the “root populations of the reniform nematode, compared between the two compounds” value in assay [3] (soybean roots after eight weeks, hydrogen cyanamide vs dimethyl cyanamide) is “lower”. For the same compound, the “soil populations of dorylaimida” value in assay [4] was “similarly reduced”. Further, the “effect on beneficial microbivorous nematodes” value in [5] is “not significantly affected”. Besides, in assay [6], the “herbicidal activity against all weed species tested” value is recorded as “herbicidal against all weed species tested”.
With `CN(C)C#N` [dimethyl cyanamide, Dimethyl cyanamide], the “effectiveness as a nematicide relative to hydrogen cyanamide” value in assay [3] (considered in terms of the rates of cyanamide anion applied) is “more effective as a nematicide than hydrogen cyanamide”. Moreover, the “overall results on delivery at the same rate (kg/ha) as hydrogen cyanamide” value in assay [3] (same weight rate, hydrogen cyanamide contains approximately 1.66 times as much cyanamide (NCN group)) is reported as “very similar results overall”. Moreover, in [3], the “nematicidal activity against the reniform nematode in soil and soybean roots” value was “nematicidal, resulting in suppression or elimination of the reniform nematode in soil and soybean roots; also recorded: powerful nematicide”. Also, the “soil populations of dorylaimida” value in assay [4] is on record as “similarly reduced”; in assay [1] it was “either reduced or not affected”. Further, the “effect on beneficial microbivorous nematodes” value in assay [5] is listed as “not significantly affected”. Besides, the “soybean plant height and weights of shoots and roots, compared with pots treated with hydrogen cyanamide” value in assay [7] is “taller and with heavier shoots and roots”. The “nematicidal activity against the reniform nematode in soil” value in assay [8] is “nematicidal, resulting in suppression or elimination of the reniform nematode in soil; also recorded: powerful nematicide”. Besides, the “root health as indicated by root appearance indices” value in assay [9] (dimethyl cyanamide: two highest rates, diisopropyl cyanamide: any rate) is recorded as “markedly improved”. Further, the “number of cotton plants/pot, dimethyl cyanamide vs diisopropyl cyanamide” value in assay [9] (in vivo) was “higher”. The “cotton plant heights and shoot and root weights” value in assay [9] (two highest rates, after eight weeks) was “concomitant increase”. The “soil populations of beneficial microbivorous nematodes” value in assay [2] is “either reduced or not affected”. In addition, in assay [6] (dose-response expressed in terms of mg of CN added to the soil, one exception (sicklepod)), the “herbicidal activity compared with hydrogen cyanamide” value is on record as “superior to hydrogen cyanamide as a herbicide”. Also, the “herbicidal activity against all weed species tested” value in [6] is recorded as “herbicidal against all weed species tested; also recorded: considerable herbicidal activity equivalent to or better than that shown by hydrogen cyanamide”. Further, the “herbicidal activity of dimethyl cyanamide during the initial counts in the presence of EPTC” value in assay [10] is “almost “masked” by that of EPTC”.
